Reference: patent US12421211B2, “Heterocyclic compounds” (Hoffmann-La Roche Inc., priority 2021, dated 2025)
Counter-ions that a name gives are not always drawn.

Test system: Acinetobacter baumannii ATCC17961
Assay: Antimicrobial susceptibility testing: 90% growth inhibitory concentration (IC90) determination
Assay type: cell-based
Conditions: Acinetobacter baumannii, ATCC17961, 16 h, 90% growth inhibitory concentration, Acinetobacter baumannii ATCC17961, Iso-Sensitest broth, OD 600 nm over 16 h; read-out: ATCC 17961 IC90
Experimental: Assay Procedures Antimicrobial Susceptibility Testing: 90% Growth Inhibitory Concentration (IC90) Determination
The in vitro antimicrobial activity of the compounds was determined according to the following procedure:
The assay used a 10-points Iso-Sensitest broth medium to measure quantitatively the in vitro activity of the compounds against Acinetobacter baumannii ATCC17961.
Stock compounds in DMSO were serially twofold diluted (e.g. range from 50 to 0.097 μM final concentration) in 384 wells microtiter plates and inoculated with 49 μl the bacterial suspension in Iso-Sensitest medium to have a final cell concentration of ˜5×10^(5) CFU/ml in a final volume/well of 50 ul/well. Microtiter plates were incubated at 35±2° C.
Bacterial cell growth was determined with the measurement of optical density at λ=600 nm each 20 minutes over a time course of 16h. Growth inhibition was calculated during the logarithmic growth of the bacterial cells with determination of the concentration inhibiting 50% (IC50) and 90% (IC90) of the growth.
Table 1 provides the 90% growth inhibitory concentrations (IC90) in micromoles per liter of the compounds of present invention obtained against the strain Acinetobacter baumannii ATCC17961.

Row | IC90 [nM] | SMILES
1 | 140 | Cc1nn(CC(=O)Nc2ccc(F)nn2)cc1-c1ccc(-c2cnc(C(=O)Nc3ccc(C(=O)N4CCN(C(=O)C5CC[N+](C)(C)CC5)CC4)c(Cl)c3)n2C)c(F)c1F [Example G31, N-[3-chloro-4-[4-(1,1-dimethylpiperidin-1-ium-4-carbonyl)piperazine-1-carbonyl]phenyl]-5-[2,3-difluoro-4-[1-[2-[(6-fluoropyridazin-3-yl)amino]-2-oxo-ethyl]-3-methyl-pyrazol-4-yl]phenyl]-1-methyl-imidazole-2-carboxamide; formate]
2 | 190 | Cc1nn(CCNC(=O)Nc2ccccn2)cc1-c1ccc(-c2cnc(C(=O)Nc3ccc(C(=O)N4CCN(C(=O)C5CC[N+](C)(C)CC5)CC4)c(Cl)c3)n2C)c(F)c1F [Example H7, N-[3-chloro-4-[4-(1,1-dimethylpiperidin-1-ium-4-carbonyl)piperazine-1-carbonyl]phenyl]-5-[2,3-difluoro-4-[3-methyl-1-[2-(2-pyridylcarbamoylamino)ethyl]pyrazol-4-yl]phenyl]-1-methyl-imidazole-2-carboxamide; formate]
3 | 150 | Cc1n[nH]cc1-c1ccc(-c2cnc(C(=O)Nc3ccc(C(=O)N4CCN(C(=O)C5CC[N+](C)(C)CC5)CC4)c(Cl)c3)n2C)c(F)c1F [Example D16, N-[3-chloro-4-[4-(1,1-dimethylpiperidin-1-ium-4-carbonyl)piperazine-1-carbonyl]phenyl]-5-[2,3-difluoro-4-(3-methyl-1H-pyrazol-4-yl)phenyl]-1-methyl-imidazole-2-carboxamide; formate]
4 | 293 | COCCn1ncc(-c2ccc(-c3cnc(C(=O)Nc4ccc(C(=O)N5CCN(C(=O)CCC[N+](C)(CCCN)CCCN)CC5)c(Cl)c4)n3C)c(F)c2F)c1C [Example P3, bis(3-aminopropyl)-[4-[4-[2-chloro-4-[[5-[2,3-difluoro-4-[1-(2-methoxyethyl)-5-methyl-pyrazol-4-yl]phenyl]-1-methyl-imidazole-2-carbonyl]amino]benzoyl]piperazin-1-yl]-4-oxo-butyl]-methyl-ammonium; formate]
5 | 360 | CC(O)Cn1cc(-c2ccc(-c3cnc(C(=O)Nc4ccc(C(=O)N5CCN(C(=O)C6CC[N+](C)(C)CC6)CC5)c(Cl)c4)n3C)c(F)c2F)c(C(F)(F)F)n1 (stereo not drawn) [Example F33, N-[3-chloro-4-[4-(1,1-dimethylpiperidin-1-ium-4-carbonyl)piperazine-1-carbonyl]phenyl]-5-[2,3-difluoro-4-[1-(2-hydroxypropyl)-3-(trifluoromethyl)pyrazol-4-yl]phenyl]-1-methyl-imidazole-2-carboxamide; formate]
6 | 340 | Cc1nn(CC2CCOCC2)cc1-c1ccc(-c2cnc(C(=O)Nc3ccc(C(=O)N4CCN(C(=O)C5CC[N+](C)(C)CC5)CC4)c(Cl)c3)n2C)c(F)c1F [Example F39, N-[3-chloro-4-[4-(1,1-dimethylpiperidin-1-ium-4-carbonyl)piperazine-1-carbonyl]phenyl]-5-[2,3-difluoro-4-[3-methyl-1-(tetrahydropyran-4-ylmethyl)pyrazol-4-yl]phenyl]-1-methyl-imidazole-2-carboxamide; formate]
7 | 300 | COCCn1cc(-c2ccc(-c3cnc(C(=O)Nc4ccc(C(=O)N5CCN(C(=O)[C@H]6C[C@H](O)C[N+]6(C)C)CC5)c(Cl)c4)n3C)c(F)c2F)c(C)n1 [Example D8, N-[3-chloro-4-[4-[(2R,4S)-4-hydroxy-1,1-dimethyl-pyrrolidin-1-ium-2-carbonyl]piperazine-1-carbonyl]phenyl]-5-[2,3-difluoro-4-[1-(2-methoxyethyl)-3-methyl-pyrazol-4-yl]phenyl]-1-methyl-imidazole-2-carboxamide; formate]
8 | 85 | COCCn1ncc(-c2ccc(-c3cnc(C(=O)Nc4ccc(C(=O)N5CCC(C(=O)N6CC[N+](C)(C)C(CO)C6)CC5)c(Cl)c4)n3C)c(F)c2F)c1C (stereo not drawn) [Example D6, N-[3-chloro-4-[4-[3-(hydroxymethyl)-4,4-dimethyl-piperazin-4-ium-1-carbonyl]piperidine-1-carbonyl]phenyl]-5-[2,3-difluoro-4-[1-(2-methoxyethyl)-5-methyl-pyrazol-4-yl]phenyl]-1-methyl-imidazole-2-carboxamide; formate]
9 | 1100 | Cc1nn(-c2ccccn2)cc1-c1ccc(-c2cnc(C(=O)Nc3ccc(C(=O)N4CCN(C(=O)C5CC[N+](C)(C)CC5)CC4)c(Cl)c3)n2C)c(F)c1F [Example F50, N-[3-chloro-4-[4-(1,1-dimethylpiperidin-1-ium-4-carbonyl)piperazine-1-carbonyl]phenyl]-5-[2,3-difluoro-4-[3-methyl-1-(2-pyridyl)pyrazol-4-yl]phenyl]-1-methyl-imidazole-2-carboxamide; formate]
10 | 180 | COCCn1ncc(-c2ccc(-c3cnc(C(=O)Nc4ccc(C(=O)N5CCN(C(=O)C6CCNCC6)CC5)c(Cl)c4)n3C)c(C)c2F)c1C [Example E5, N-[3-chloro-4-[4-(piperidine-4-carbonyl)piperazine-1-carbonyl]phenyl]-5-[3-fluoro-4-[1-(2-methoxyethyl)-5-methyl-pyrazol-4-yl]-2-methyl-phenyl]-1-methyl-imidazole-2-carboxamide; formic acid]
11 | 1500 | COc1ccccc1-c1[nH]ncc1-c1ccc(-c2cnc(C(=O)Nc3ccc(C(=O)N4CCN(C(=O)C5CC[N+](C)(C)CC5)CC4)c(Cl)c3)n2C)c(F)c1F [Example I4, N-[3-chloro-4-[4-(1,1-dimethylpiperidin-1-ium-4-carbonyl)piperazine-1-carbonyl]phenyl]-5-[2,3-difluoro-4-[5-(2-methoxyphenyl)-1H-pyrazol-4-yl]phenyl]-1-methyl-imidazole-2-carboxamide; formate]
12 | 210 | COCCn1cc(-c2ccc(-c3cnc(C(=O)Nc4ccc(C(=O)N5CCN(C(=O)[C@@H]6CC(CO)C[N+]6(C)C)CC5)c(Cl)c4)n3C)c(F)c2F)c(C)n1 (stereo partly drawn) [Example A12, N-[3-chloro-4-[4-[(2S)-4-(hydroxymethyl)-1,1-dimethyl-pyrrolidin-1-ium-2-carbonyl]piperazine-1-carbonyl]phenyl]-5-[2,3-difluoro-4-[1-(2-methoxyethyl)-3-methyl-pyrazol-4-yl]phenyl]-1-methyl-imidazole-2-carboxamide; formate]
13 | 170 | COCCn1ncc(-c2ccc(-c3cnc(C(=O)Nc4ccc(C(=O)N5CCN(C(=O)[C@@H]6C[C@@H](O)C[N+]6(C)C)CC5)c(Cl)c4)n3C)c(F)c2F)c1C(F)F [Example F12, N-[3-chloro-4-[4-[(2S,4R)-4-hydroxy-1,1-dimethyl-pyrrolidin-1-ium-2-carbonyl]piperazine-1-carbonyl]phenyl]-5-[4-[5-(difluoromethyl)-1-(2-methoxyethyl)pyrazol-4-yl]-2,3-difluoro-phenyl]-1-methyl-imidazole-2-carboxamide; formate]
14 | 65 | COCCn1ncc(-c2ccc(-c3cnc(C(=O)Nc4ccc(C(=O)N5CCN(C(=O)C6CC[N+](C)(C)CC6)CC5)c(Cl)c4)n3C)c(Cl)c2F)c1C [Example F2, N-[3-chloro-4-[4-(1,1-dimethylpiperidin-1-ium-4-carbonyl)piperazine-1-carbonyl]phenyl]-5-[2-chloro-3-fluoro-4-[1-(2-methoxyethyl)-5-methyl-pyrazol-4-yl]phenyl]-1-methyl-imidazole-2-carboxamide; formate]
15 | 130 | Cc1n[nH]cc1-c1ccc(-c2cnc(C(=O)Nc3ccc(C(=O)N4CCN(C(=O)C5CCNCC5)CC4)c(Cl)c3)n2C)c(F)c1F [Example E19, N-[3-chloro-4-[4-(piperidine-4-carbonyl)piperazine-1-carbonyl]phenyl]-5-[2,3-difluoro-4-(3-methyl-1H-pyrazol-4-yl)phenyl]-1-methyl-imidazole-2-carboxamide]

Same assay, conditions: Acinetobacter baumannii, ATCC17961, 16 h, read-out: ATCC 17961 IC90

Row | SMILES | IC90 [nM]
16 | COCCn1cc(-c2ccc(-c3cnc(C(=O)Nc4ccc(C(=O)N5CCN(C(=O)C[N+]6(C)CC[C@@H](O)C6)CC5)c(Cl)c4)n3C)c(F)c2F)c(C)n1 (stereo partly drawn) [Example C8, N-[3-chloro-4-[4-[2-[(3R)-3-hydroxy-1-methyl-pyrrolidin-1-ium-1-yl]acetyl]piperazine-1-carbonyl]phenyl]-5-[2,3-difluoro-4-[1-(2-methoxyethyl)-3-methyl-pyrazol-4-yl]phenyl]-1-methyl-imidazole-2-carboxamide; formate] | 210
17 | Cc1n[nH]cc1-c1ccc(-c2cnc(C(=O)Nc3ccc(C(=O)N4CCN(C(=O)[C@@H]5C[C@@H](O)C[N+]5(C)CCO)CC4)c(Cl)c3)n2C)c(F)c1F (stereo partly drawn) [Example B36, N-[3-chloro-4-[4-[(2S,4R)-4-hydroxy-1-(2-hydroxyethyl)-1-methyl-pyrrolidin-1-ium-2-carbonyl]piperazine-1-carbonyl]phenyl]-5-[2,3-difluoro-4-(3-methyl-1H-pyrazol-4-yl)phenyl]-1-methyl-imidazole-2-carboxamide; 2,2,2-trifluoroacetate] | 110
18 | COCCn1ncc(-c2ccc(-c3cnc(C(=O)Nc4ccc(C(=O)N5CCN(C(=O)C6CCN(CC7C[N+](C)(C)C7)CC6)CC5)c(Cl)c4)n3C)c(F)c2F)c1C [Example B31, N-[3-chloro-4-[4-[1-[(1,1-dimethylazetidin-1-ium-3-yl)methyl]piperidine-4-carbonyl]piperazine-1-carbonyl]phenyl]-5-[2,3-difluoro-4-[1-(2-methoxyethyl)-5-methyl-pyrazol-4-yl]phenyl]-1-methyl-imidazole-2-carboxamide] | 71
